Source: patent publication US9682111B2, “Method for preventing or treating neurodegenerative diseases” (priority 2012, dated 2017)

Columns and labels:
[1] = tested on: pPD95.86::α-SYN transgenic C. elegans; assay: Lifespan of α-SYN transgenic C. elegans (anti-elegan aging experiment); format: in vivo, Caenorhabditis elegans; settings: α-syn transgenic elegans on NGM plates with OP50, 20° C.; α-syn model 11.8 ± 3.66, N2 16 ± 5.68
Source text: pPD95.86::α-SYN transgenic C. elegans were establish by Sun et al. and preserved in the Department of Neurosurgery, the First Affiliated Hospital of Sun Yat-sen University, China. The method for establishing the α-SYN transgenic C. elegans was described in detail by Sun et al. (Toxic effect of Parkinson's disease gene α-Synuclein on Caenorhabditis elegants. New Medicine, 2013, 44 (4): 273-277.)
In brief, a wild-human α-SYN cDNA were amplified by PCR and inserted into the plasmid pPD95.86. Transgenic plasmids were isolated and injected into the gonad of synchronized N2 C. elegants at a concentration of 100 ng/μl. The transgenic F2 (second generation) worms was selected and then mutated under UV radiation. The UV treated F2 worms were backcrossed to wild type worms to generate stable α-SYN transgenic lines. The α-SYN transgenic lines express α-SYN and therefore have shorter life span and impaired motor functions.
A solution containing E. coli OP50, and biotae extracts and diterpenoid compounds of different concentrations are coated onto NGM plates. N2 elegans are synchronized to L4 phase under 20° C. Three plates are employed in one experimental group, and each plate includes about 25 elegans. The number of live elegans is recorded every day, and the elegans are transferred into a new NGM plate when the food is used up or there is mold contamination. The experiment pends till all the elegans are dead.

PC12 cells = assay: MPP+ induced injury of PC12 cells (PD model cells), MTT assay; format: cell-based, rat; design: Relative Cell Activity %: concentration or dose not given beside the values; settings: PC12 cells with MPP+ and test substance, 24 hours; for average OD value: MTT assay, model group 1.061 ± 0.035, normal control 2.198 ± 0.046; for Relative Cell Activity %: MTT, normal control 100, model group 48.3
Method: PC12 cells (rat adrenal pheochromocytoma cell strain), which show many similar characters with dopaminergic neurons, was cultured in DMEM medium (which contains 5% horse serum, 5% fetal bovine serum, 100 U/mL penicillin, 100 µg/mL streptomycin), in an incubator under 37° C., saturated humidity, and 5% CO2. The medium was replaced every 2-3 days, and the cells were subcultured when the cells cover 70-80% area of the plate. Cells in log phase and under fine growth conditions were chosen, and inoculated in 96 well plate at 1-5×10^5 and 100 μl per well. After culturing under 37° C. for 24 hours and the cells adhere to the walls of the wells, MPP^+ medium was added to the model group, a medium containing MPP^+(1-methyl-4-phenylpyridinium) and semen biotae extracts/diterpenoid compounds were added to experimental group, and a medium with no drug was added to the blank control group. Then the media were continued to culture in the incubator for 24 hours. MTT assay was used to evaluate cell activity.

[2] = tested on: Caenorhaditiselegans transgene strain CL4176 (expressing Aβ protein); assay: Paralysis of AD model elegans caused by Aβ (transgene strain CL4176); format: in vivo, Caenorhabditis elegans; settings: 15° C. then 26° C., paralysis counted every three hours, blank control 49.503 ± 0.445
Method: Caenorhaditiselegans (Caenorhaditiselegans) transgene strain CL4176 (expressing Aβ protein under temperature inducing) were synchronized and cultured under 15° C. to L1 phase, and then added into coated OP50 microbial medium dishes containing the extracted drugs with different concentrations, at around 25/dish. Three dishes were used in one group. The dishes were cultured under 15° C. for 12 hours and then cultured under 26° C. 36 hours after the change of culturing temperature, the paralyses of the elegans were observed. Count every three hours until all the elegans was paralyzed.

| Compound | Living time [1] [days] | average OD value (PC12 cells) | Relative Cell Activity % (PC12 cells) [%] | Average Living Time [2] [h] |
| --- | --- | --- | --- | --- |
| C=C1CC[C@@H]2[C@](C)(CCC[C@]2(C)C(=O)O)[C@H]1CCC1=CCOC1=O [Pinusolidic acid] | 13.8 ± 3.37 | 1.224 ± 0.057 | 55.7 | – |
| C=C1CCC2C(C)(C(=O)O)CCCC2(C)C1C/C=C(\C)[C@@H](O)CO (stereo partly drawn) [14(R),15-Dihydroxy-8(17),12(E)-labdadien-19-oic acid] | 14.5 ± 3.76 | 1.346 ± 0.059 | 61.2 | – |
| C=C1CC[C@@H]2[C@](C)(CCC[C@]2(C)C(=O)O)[C@H]1/C=C/C(C)=O [1-Naphthalenecarboxylic acid, decahydro-1,4a-dimethyl-6-methylene-5-[(1E)-3-oxo-1-butenyl]-, (1S,4aS,5S,8aR)-] | 14.75 ± 2.22 | – | – | – |
| C=C1CC[C@@H]2[C@](C)(CCC[C@]2(C)C(=O)O)[C@H]1CCC(C)=O [1-Naphthalenecarboxylic acid, decahydro-1,4a-dimethyl-6-methylene-5-(3-oxobutyl)-, (1S,4aR,5S,8aR)-] | 14.35 ± 3.9 | 1.391 ± 0.038 | 63.3 | 50.991 ± 0.568 |
| C=CC(C)(O)C(O)CC1C(=C)CCC2C(C)(C(=O)O)CCCC12C (stereo not shown) [12,13-Dihydroxylabda-8(17),14-dien-19-oic acid] | 14.15 ± 3.1 | – | – | 51.008 ± 0.434 |
| Isopinusolide | 13.9 ± 3.65 | – | – | 53.988 ± 0.320 |
| C=C1CCC2C(C)(C(=O)O)CCCC2(C)C1CC1OCC=C1CC (stereo not shown) [16-Methyl-12,15-epoxy-8(17),13-labdadien-19-oic acid] | 13.95 ± 3.9 | – | – | 54.336 ± 0.377 |
| Platyclolactonic Acid | 13.95 ± 2.26 | – | – | – |
| C=C1CCC2C(C)(C(=O)O)CCCC2(C)C1CC1(O)OCC(O)C1(C)O (stereo not shown) [12,13,14-trihydroxylabda-12,15-epoxy-8(17)-en-19-oic acid] | 14 ± 3.67 | 1.404 ± 0.057 | 63.9 | – |
| C=C1CCC2C(C)(C(=O)O)CCCC2(C)C1CCC1=CC(O)OC1=O (stereo not shown) [15-Hydroxypinusolidic acid] | 14.1 ± 4.68 | 1.585 ± 0.057 | 72.1 | 51.575 ± 0.257 |
| CC(C)c1c(O)ccc2c1CCC1C2(C)C(=O)CC(O)C1(C)C (stereo not drawn) [1-oxo-3β-hydroxytotarol] | 14.6 ± 3.63 | 1.448 ± 0.057 | 65.9 | 53.478 ± 0.357 |
| C=C1CCC2C(C)(C(=O)O)CCCC2(C)C1CCC1=CC(OC)OC1=O (stereo not shown) [15-Methoxypinusolidic acid] | 13.55 ± 4.05 | – | – | 55.012 ± 0.399 |
| C=C1CCC2C(C)(C(=O)OC)CCCC2(C)C1C/C=C/C (stereo not shown) [14,15-Bisnor-8(17),12E-labdadien-19-oic acid methyl ester] | 14.8 ± 3.24 | 1.536 ± 0.035 | 69.9 | – |
| C=C[C@@]1(C)CC[C@H]2C(=CC[C@@H]3[C@]2(C)CCC[C@@]3(C)C(=O)O)C1 [Isopimaric acid] | 14.9 ± 1.55 | – | – | 52.785 ± 0.432 |
| C=C1CCC2C(C)(C(=O)O)CCCC2(C)C1CCCC(=O)O (stereo not shown) [14,15-bisnor-8(17)-labdene-16,19-dioic acid] | 14.35 ± 3.38 | 1.292 ± 0.072 | 58.8 | 51.892 ± 0.322 |
| C=C1CC[C@@H]2[C@](C)(CCC[C@]2(C)C(=O)OC)[C@H]1CCC1=CCOC1=O [Pinusolide] | 15.6 ± 2.74 | – | – | 54.003 ± 0.287 |
| C=CC1(C)C=C2C(O)CC3C(C)(C(=O)O)CCCC3(C)C2CC1 (stereo not drawn) [7α-Hydroxysandaracopimaric acid] | 14.3 ± 3.01 | – | – | 53.067 ± 0.455 |
| C=CC1(C)C=C2C=CC3C(C)(C(=O)O)CCCC3(C)C2CC1 (stereo not shown) [6,7-Dehydrosandarapimaric Acid] | 14.7 ± 2.7 | 1.435 ± 0.044 | 65.3 | 52.435 ± 0.484 |
| C=C1CCC2C(C)(C(=O)O)CCCC2(C)C1CC/C(=C\CO)CO (stereo not shown) [15,16-Dihydroxy-8(17),13(E)-labdadien-19-oic acid] | 14.35 ± 2.62 | – | – | 51.217 ± 0.397 |
| C=CC1(C)C=C2CCC3C(C)(CO)C(O)CCC3(C)C2CC1 (stereo not drawn) [Sandaracopimaradiene-3β,18-diol] | 14.05 ± 3.49 | 1.652 ± 0.015 | 75.1 | – |
| C=C1CC[C@@H]2[C@](C)(CCC[C@]2(C)C(=O)O)[C@H]1C/C=C(\C)C=O [Naphthalenecarboxylic acid, decahydro-1,4a-dimethyl-6-methylene-5-[(2E)-3-methyl-4-oxo-2-butenyl]-, (1S,4aR,5S,8aR)-] | 14.4 ± 3.42 | 1.236 ± 0.085 | 56.2 | 52.136 ± 0.415 |
| C=C[C@]1(C)C=C2CC[C@@H]3[C@](C)(CCC[C@@]3(C)C(=O)O)[C@H]2CC1 [Sandaracopimaric acid] | 15.85 ± 3.1 | – | – | 53.616 ± 0.443 |
| C=C[C@@](C)(O)CC[C@H]1C(=C)CC[C@@H]2[C@]1(C)CCC[C@]2(C)C(=O)O [13-Epicupressic acid] | 13.7 ± 3.34 | – | – | 54.015 ± 0.432 |
| C=C[C@@](C)(O)CCC1C(=C)C(O)CC2C(C)(C(=O)O)CCCC12C (stereo partly drawn) [7β,13S-dihydroxylabda-8(17),14-dien-19-oic acid] | 13.7 ± 2.85 | 1.359 ± 0.045 | 61.8 | – |
| C=C1CC[C@@H]2[C@](C)(CCC[C@]2(C)C(=O)O)[C@H]1CC/C(C)=C/CO [Isocupressic acid] | 14.85 ± 2.66 | – | – | 53.879 ± 0.414 |
| C=C1CC[C@@H]2[C@](C)(CCC[C@]2(C)C(=O)O)[C@H]1CC[C@H](C)CCO [Imbricatolic acid] | 14.25 ± 2.67 | – | – | 55.857 ± 0.428 |
| Platyclolactonic Acid Methyl Ester | 14.3 ± 3.08 | – | – | 51.393 ± 0.487 |
